Several values for one entry are separate records, joined by “and”; a condition that tells them apart may be missing. Identical values can stand only once. Toxic doses and inconclusive results are not listed. Cut-off read from the data, not from the text of the source: active = T/C of 150% or more; inactive = T/C below 125%.
Test system: L1210 leukemia ip in BDF1 mice, survival T/C
Experiment: NCI In Vivo Anticancer Drug Screen. Data for tumor model L1210 Leukemia (intraperitoneal) in B6D2F1 (BDF1) mice
Settings: endpoint: mean survival time, higher = longer survival
How it was run: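 Antitumor effect is assessed in tumor-bearing animals. Survival in the compound arm is compared with a vehicle-dosed control arm and expressed as their quotient.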

[1] = dose: 100.0 mg/kg/injection, schedule: Q04DX003 (ip), vehicle: saline with Tween-80
[2] = dose: 200.0 mg/kg/injection, schedule: Q04DX003 (ip), vehicle: saline with Tween-80
[3] = dose: 400.0 mg/kg/injection, schedule: Q04DX003 (ip), vehicle: saline with Tween-80
[4] = dose: 100.0 mg/kg/injection, schedule: Q01DX009 (ip), vehicle: saline
[5] = dose: 200.0 mg/kg/injection, schedule: Q01DX009 (ip), vehicle: saline
[6] = dose: 100.0 mg/kg/injection, schedule: Q04DX003 (ip), vehicle: Klucel (hydroxypropylcellulose) (HPC)
[7] = dose: 200.0 mg/kg/injection, schedule: Q04DX003 (ip), vehicle: Klucel (hydroxypropylcellulose) (HPC)
[8] = dose: 400.0 mg/kg/injection, schedule: Q04DX003 (ip), vehicle: Klucel (hydroxypropylcellulose) (HPC)
[9] = dose: 100.0 mg/kg/injection, schedule: Q01DX001 (ip), vehicle: other
[10] = dose: 100.0 mg/kg/injection, schedule: Q04DX002 (ip), vehicle: Klucel (hydroxypropylcellulose) (HPC)
[11] = dose: 200.0 mg/kg/injection, schedule: Q01DX001 (ip), vehicle: other
[12] = dose: 200.0 mg/kg/injection, schedule: Q04DX002 (ip), vehicle: Klucel (hydroxypropylcellulose) (HPC)
[13] = dose: 400.0 mg/kg/injection, schedule: Q01DX001 (ip), vehicle: other
[14] = dose: 400.0 mg/kg/injection, schedule: Q04DX002 (ip), vehicle: Klucel (hydroxypropylcellulose) (HPC)
[15] = dose: 100.0 mg/kg/injection, schedule: Q01DX009 (ip), vehicle: Klucel (hydroxypropylcellulose) (HPC)

Measured: T/C

CN(C)C(=S)OCC(C)(C)C
inactive: [1] 113 % of control | [2] 100 % of control | [3] 97 % of control

Nc1ccc(N2CCNCC2)cc1
inactive: dose: 50.0 mg/kg/injection, schedule: Q01DX009 (ip), vehicle: saline 101 % of control | [4] 107 % of control | [5] 111 % of control

COP(=O)(O)CC(C)=O (tested in a mixture with another compound)
inactive: dose: 100.0 mg/kg/injection, schedule: Q04DX002 (ip), vehicle: saline 101 % of control | dose: 200.0 mg/kg/injection, schedule: Q04DX002 (ip), vehicle: saline 101 % of control | dose: 400.0 mg/kg/injection, schedule: Q04DX002 (ip), vehicle: saline 101 % of control

OCCCNc1nc2ccccc2c2ccccc12
inactive: [4] 102 % of control | [6] 94 % of control | [5] 100 % of control | [7] 102 % of control | [8] 100 % of control

OCn1c2ccccc2c2ccccc21
inactive: [9] 98 % of control | [10] 113 % of control | [11] 92 % of control | [12] 94 % of control | [13] 98 % of control | [14] 113 % of control

N#CNC(=S)S
inactive: dose: 100.0 mg/kg/injection, schedule: Q04DX003 (ip), vehicle: saline 105 % of control | dose: 200.0 mg/kg/injection, schedule: Q04DX003 (ip), vehicle: saline 93 % of control | dose: 400.0 mg/kg/injection, schedule: Q04DX003 (ip), vehicle: saline 104 % of control

CN(C)/N=N/c1nc[nH]c1C(=O)N/N=C/c1ccc(N(CCCl)CCCl)cc1
inactive: [9] 100 % of control | [11] 104 % of control | [13] 98 % of control

CN(C)C(=S)Oc1ccc(C(F)(F)F)cc1
inactive: [6] 95 % of control | [7] 93 % of control | [8] 101 % of control

Cc1ccc2[nH]c(=S)n(-c3ccc(Cl)cc3)c(=O)c2c1
inactive: dose: 100.0 mg/kg/injection, schedule: Q04DX003 (ip), vehicle: carboxymethylcellulose (CMC) 97 % of control | dose: 200.0 mg/kg/injection, schedule: Q04DX003 (ip), vehicle: carboxymethylcellulose (CMC) 88 % of control | dose: 400.0 mg/kg/injection, schedule: Q04DX003 (ip), vehicle: carboxymethylcellulose (CMC) 93 % of control

CCOC(=O)C(Nc1cccc2ccccc12)C(=O)OCC
inactive: [10] 105 % of control | [12] 103 % of control | [14] 100 % of control

CCOC(=O)c1nc2c(C)nc(N)nc2[nH]c1=O
inactive: dose: 100.0 mg/kg/injection, schedule: Q01DX001 (ip), vehicle: Klucel (hydroxypropylcellulose) (HPC) 107 % of control | dose: 200.0 mg/kg/injection, schedule: Q01DX001 (ip), vehicle: Klucel (hydroxypropylcellulose) (HPC) 111 % of control | dose: 400.0 mg/kg/injection, schedule: Q01DX001 (ip), vehicle: Klucel (hydroxypropylcellulose) (HPC) 96 % of control

CCNC(=O)C1C2C=CC(C2)C1C(=O)NCC (stereo unspecified)
inactive: [1] 91 % of control | [2] 96 % of control | [3] 87 % of control

CN(C)/C=C/C(=O)c1ccccc1[N+](=O)[O-]
inactive: [15] 97 % of control | [6] 100 % of control | dose: 200.0 mg/kg/injection, schedule: Q01DX009 (ip), vehicle: Klucel (hydroxypropylcellulose) (HPC) 100 % of control | [7] 105 % of control | dose: 400.0 mg/kg/injection, schedule: Q01DX009 (ip), vehicle: Klucel (hydroxypropylcellulose) (HPC) 103 % of control | [8] 100 % of control

NC(=Nc1ccccc1)SCc1ccc([N+](=O)[O-])cc1
inactive: dose: 50.0 mg/kg/injection, schedule: Q01DX009 (ip), vehicle: Klucel (hydroxypropylcellulose) (HPC) 108 % of control | dose: 100.0 mg/kg/injection, schedule: Q01DX005 (ip), vehicle: Klucel (hydroxypropylcellulose) (HPC) 97 % of control | [15] 104 % of control | [10] 104 % of control | dose: 200.0 mg/kg/injection, schedule: Q01DX005 (ip), vehicle: Klucel (hydroxypropylcellulose) (HPC) 92 % of control | [12] 112 % of control | [14] 89 % of control

COC(OC)c1[nH]c(=S)[nH]c(=O)c1CCCc1ccccc1
inactive: dose: 100.0 mg/kg/injection, schedule: Q01DX009 (ip), vehicle: saline with Tween-80 94 % of control | [1] 100 % of control | dose: 200.0 mg/kg/injection, schedule: Q01DX009 (ip), vehicle: saline with Tween-80 105 % of control | [2] 100 % of control | dose: 400.0 mg/kg/injection, schedule: Q01DX009 (ip), vehicle: saline with Tween-80 86 % of control | [3] 96 % of control

C=CCNCCN1CCN(CCCN2c3ccccc3Sc3ccc(C(F)(F)F)cc32)CC1
inactive: dose: 6.25 mg/kg/injection, schedule: Q04DX003 (ip), vehicle: saline 106 % of control | dose: 12.5 mg/kg/injection, schedule: Q01DX009 (ip), vehicle: saline 103 % of control | dose: 12.5 mg/kg/injection, schedule: Q04DX003 (ip), vehicle: saline 98 % of control | dose: 25.0 mg/kg/injection, schedule: Q01DX009 (ip), vehicle: saline 102 % of control | dose: 25.0 mg/kg/injection, schedule: Q04DX003 (ip), vehicle: saline 102 % of control | dose: 50.0 mg/kg/injection, schedule: Q04DX003 (ip), vehicle: saline 96 % of control

c1ccc(CCCCCCCCCCc2ccccc2)cc1
inactive: dose: 100.0 mg/kg/injection, schedule: Q01DX001 (ip), vehicle: saline with Tween-80 91 % of control | dose: 200.0 mg/kg/injection, schedule: Q01DX001 (ip), vehicle: saline with Tween-80 95 % of control | dose: 400.0 mg/kg/injection, schedule: Q01DX001 (ip), vehicle: saline with Tween-80 98 % of control

O=[N+]([O-])c1ccc(O)c2ncccc12
inactive: dose: 25.0 mg/kg/injection, schedule: Q04DX002 (ip), vehicle: Klucel (hydroxypropylcellulose) (HPC) 102 % of control | dose: 50.0 mg/kg/injection, schedule: Q01DX001 (ip), vehicle: carboxymethylcellulose (CMC) 101 % of control | dose: 50.0 mg/kg/injection, schedule: Q01DX015 (ip), vehicle: saline 97 % of control | dose: 50.0 mg/kg/injection, schedule: Q04DX002 (ip), vehicle: Klucel (hydroxypropylcellulose) (HPC) 94 % of control and 102 % of control | dose: 100.0 mg/kg/injection, schedule: Q01DX001 (ip), vehicle: carboxymethylcellulose (CMC) 109 % of control | dose: 100.0 mg/kg/injection, schedule: Q01DX015 (ip), vehicle: saline 93 % of control | [10] 94 % of control (2×) and 95 % of control | dose: 200.0 mg/kg/injection, schedule: Q01DX001 (ip), vehicle: carboxymethylcellulose (CMC) 95 % of control | dose: 200.0 mg/kg/injection, schedule: Q01DX015 (ip), vehicle: saline 95 % of control | [12] 110 % of control | dose: 400.0 mg/kg/injection, schedule: Q01DX015 (ip), vehicle: saline 91 % of control | [14] 91 % of control

Reference: PubChem BioAssay AID248 (DTP/NCI, 2004)
